Measurements as given in PMC8570331, “8-Hydroxyquinoline-Amino Acid Hybrids and Their Half-Sandwich Rh and Ru Complexes: Synthesis, Anticancer Activities, Solution Chemistry and Interaction with Biomolecules” (International Journal of Molecular Sciences, 2021).
Marks after values point to notes of the source that are not given here.

Test system: Colo-320 human colon adenocarcinoma cell line (multidrug-resistant)
Experiment: MTT cytotoxicity assay in Colo-320
Type: cell-based
Conditions: 72 h incubation
Procedure: The in vitro cytotoxic activity of the novel water-soluble amino acid derivatives of HQCl and their RhCp* and RuCym complexes was measured by the thiazolyl blue tetrazolium bromide (MTT) assay in two human colon adenocarcinoma cell lines (Colo-205 and Colo-320) and in one non-tumoral human lung fibroblast cell line (MRC-5). The results are given in terms of IC50 values (Table 1). Colo-205 is a drug-sensitive cell line with a normal ABCB1 transporter expression pattern, while Colo-320 is multidrug-resistant and overexpresses the ABCB1 system.
All cell culture reagents were obtained from Sigma-Aldrich and plasticware from Sarstedt (Nümbrecht, Germany). Human colonic Colo-205 doxorubicin-sensitive and Colo-320/MDR-LRP multidrug-resistant adenocarcinoma and MRC-5 human embryonal lung fibroblast cell lines were purchased from LGC Promochem, Teddington, UK. The colonic adenocarcinoma cells were cultured in Roswell Park Memorial Institute (RPMI) 1640 medium supplemented with 10% heat-inactivated fetal bovine serum, 2 mM L-glutamine, 1 mM sodium pyruvate and […]. The MRC-5 cell line was cultured in Eagle’s Minimal Essential Medium (EMEM, Sigma-Aldrich, St. Louis, MO, USA) supplemented with a non-essential amino acid (NEAA) mixture (Sigma-Aldrich, St. Louis, MO, USA) a selection of vitamins, 10% heat-inactivated foetal bovine serum (FBS), 2 mM L-glutamine (Sigma-Aldrich, St. Louis, MO, USA), 1 mM Na-pyruvate (Sigma-Aldrich, St. Louis, MO, USA), nystatin (Sigma-Aldrich, St. Louis, MO, USA) and a penicillin-streptomycin mixture (Sigma-Aldrich, St. Louis, MO, USA) in con-centrations of 100 U/L and 10 mg/L, respectively. The cells were incubated at 37 °C, in a 5% CO2, 95% air atmosphere. All cell lines were detached with Trypsin-Versene (EDTA) solution for 5 min at 37 °C.
The tested compounds were dissolved in 10% (v/v) DMSO/H2O using 4 mM concentration. Doxorubicin (Merck, Darmstadt, Germany) was used as a positive control. Then stock solutions were diluted in complete culture medium, and two-fold serial dilutions of compounds were prepared in 100 μL of the medium, horizontally. The semi-adherent colonic adenocarcinoma cells were treated with Trypsin-Versene (EDTA) solution. They were adjusted to a density of 1 × 10^4 cells in 100 μL of RPMI 1640 or EMEM medium and were added to each well, with the exception of the medium control wells. The final volume of the wells containing compounds and cells was 200 μL. The plates containing Colo-205, Colo-320 or MRC-5 cells were incubated at 37 °C for 72 h; at the end of the incubation period, 20 μL of MTT solution (from a stock solution of 5 mg/mL) were added to each well. After incubation at 37 °C for 4 h, 100 μL of SDS solution (10% in 0.01 M HCI) were added to each well, and the plates were further incubated at 37 °C overnight. […] The IC50 values were obtained from at least 3 independent experiments.

SMILES | IC50 [µM]
Cc1c(C)c(C)[c-](C)c1C.O=C(O)[C@H]1CCC[NH+]1Cc1cc(Cl)c2cccnc2c1[O-].[Cl-].[Cl-].[Rh+3] [RhCp*–HQCl-D-Pro, [RhCp*(HQCl-D-Pro)Cl]Cl] | 34.3 ± 1
Cc1c(C)c(C)[c-](C)c1C.O=C(O)[C@H]1CCCC[NH+]1Cc1cc(Cl)c2cccnc2c1[O-].[Cl-].[Cl-].[Rh+3] [RhCp*–HQCl-D-hPro, [RhCp*(HQCl-D-hPro)Cl]Cl] | 18.9 ± 0.54
Cc1ccc(C(C)C)cc1.O=C(O)[C@H]1CCC[NH+]1Cc1cc(Cl)c2cccnc2c1[O-].[Cl-].[Cl-].[Ru+2] [RuCym–HQCl-D-Pro, [RuCym(HQCl-D-Pro)Cl]Cl] | > 100
Cc1ccc(C(C)C)cc1.O=C(O)[C@H]1CCCC[NH+]1Cc1cc(Cl)c2cccnc2c1[O-].[Cl-].[Cl-].[Ru+2] [RuCym–HQCl-D-hPro, [RuCym(HQCl-D-hPro)Cl]Cl] | > 100

Test system: not listed separately
Experiment: Proton dissociation and H2O/Cl- exchange constants of the complexes (UV-vis, 1H NMR)
Type: physicochemical
Conditions: 1H NMR; I = 0.2 M KNO3; T = 25.0 °C
Procedure: In the basic pH range, both the UV-vis and ^1H NMR spectra recorded for the [M(arene)(H2O)3]^2+–ligand (1:1) systems reveal the further chemical transformation of the [M(arene)(HQCl-D-(h)ProH−1)(H2O)]^+ species. […] It should be noted that peaks of the p-cymene CH3 groups are doubled at pH > 10 (Figure S21b), indicating the loss of their symmetry due to the formation of the hydroxido complex, which probably blocks the free rotation of the arene ligand. Two pKa values were determined by both methods for each RuCym complex that is in good agreement (Table 3).
These deprotonation processes take place at somewhat higher pH in the case of the RhCp* complexes compared to the RuCym compounds; however, other differences were also observed.
Thus, only one pKa value could be computed (Table 3), which is rather assigned to the H2O → OH^− process. The peaks of the protons in the ^1H NMR spectra located nearby the metal center (both 8-hydroxyquinoline CH and CH3 protons of RhCp*) and the peaks of the homoproline moiety are shifted by increasing the pH (Figure S22b,c). […] Due to this side-reaction, no pKa values were calculated from the ^1H NMR spectra.
Based on the determined pKa values of the complexes (Table 3), it can be concluded that at physiological pH all of them are present predominantly in their [M(arene)(HQCl-D-(h)ProH−1)(H2O)]^+ form. However, in the presence of chloride ions, the exchange of the aqua ligand to the halide ligand is possible. The water/chloride co-ligand exchange process was monitored spectrophotometrically at pH 7.4, as it was performed for other RuCym and RhCp* complexes in our previous works. […] It can be concluded that the RhCp* complexes have stronger chloride ion affinity. The coordination of the chloride ion changes the charge of the complex; thus, it will also influence lipophilicity. In order to characterize the hydrophilic/lipophilic character of the complexes, n-octanol/buffer aqueous solution partitioning was performed at pH 7.4. The measurements were performed at three kinds of chloride ion concentrations regarding different biofluids (4, 24 and 100 mM for nucleus, cytosol and blood, respectively). The calculated logD7.4 values can be found in Figure 8.
Agilent Cary 8454 diode array spectrophotometer was utilized to obtain UV-vis spectra in the wavelength range 190–1100 nm. The path length (ℓ) was 1 cm in most cases (the actual ℓ is always indicated in the legends of the figures). The concentrations of the ligands and complexes were between 88 and 240 µM. For HSA and ct-DNA containing samples, complex concentrations were 100 µM, and 0.5 and 2 equiv. biomolecule were added for kinetic studies, respectively. Individual samples contained 0–20 µM HSA and 0–1.75 mM (nucleotide) ct-DNA. Spectra were always background corrected. The computer program HypSpec was used to obtain stability constants.
Bruker Avance III HD Ascend 500 Plus instrument (Billerica, MA, USA) was used for NMR studies. ^1H NMR spectroscopic measurements were carried out with a WATERGATE water suppression pulse scheme in the presence of 10% (v/v) D2O in most cases. DSS internal standard was added to samples to obtain reference peaks. Complex concentrations were 0.5 mM or 1.0 mM, and 0.5 equiv. HSA was added. ^1H NMR titrations were carried out in the presence of 0.2 M KNO3. With the FHA model peptide, the measurements were performed at 0.5 or 1 mM metal complex concentrations, and 1:1, 1:2 or 2:1 peptide-to-metal complex ratios were applied. The computer program HypSpec was used to obtain stability constants.

SMILES | pKa1 of the complex | pKa2 of the complex
Cc1c(C)c(C)[c-](C)c1C.O=C(O)[C@H]1CCCC[NH+]1Cc1cc(Cl)c2cccnc2c1[O-].[Cl-].[Cl-].[Rh+3] [RhCp*–HQCl-D-hPro, [RhCp*(HQCl-D-hPro)Cl]Cl] | 9.82 ± 0.13 ^a | 10.06 ± 0.06 ^b
Cc1ccc(C(C)C)cc1.O=C(O)[C@H]1CCC[NH+]1Cc1cc(Cl)c2cccnc2c1[O-].[Cl-].[Cl-].[Ru+2] [RuCym–HQCl-D-Pro, [RuCym(HQCl-D-Pro)Cl]Cl] | 9.02 ± 0.07 | 10.69 ± 0.06
Cc1ccc(C(C)C)cc1.O=C(O)[C@H]1CCCC[NH+]1Cc1cc(Cl)c2cccnc2c1[O-].[Cl-].[Cl-].[Ru+2] [RuCym–HQCl-D-hPro, [RuCym(HQCl-D-hPro)Cl]Cl] | 8.77 ± 0.05 | 10.13 ± 0.04

Same assay, conditions: UV-vis, pH 7.4; T = 25.0 °C

SMILES | logK′ (H2O/Cl−) conditional exchange constant
Cc1c(C)c(C)[c-](C)c1C.O=C(O)[C@H]1CCC[NH+]1Cc1cc(Cl)c2cccnc2c1[O-].[Cl-].[Cl-].[Rh+3] [RhCp*–HQCl-D-Pro, [RhCp*(HQCl-D-Pro)Cl]Cl] | 1.72 ± 0.01
Cc1c(C)c(C)[c-](C)c1C.O=C(O)[C@H]1CCCC[NH+]1Cc1cc(Cl)c2cccnc2c1[O-].[Cl-].[Cl-].[Rh+3] [RhCp*–HQCl-D-hPro, [RhCp*(HQCl-D-hPro)Cl]Cl] | 1.79 ± 0.01
Cc1ccc(C(C)C)cc1.O=C(O)[C@H]1CCC[NH+]1Cc1cc(Cl)c2cccnc2c1[O-].[Cl-].[Cl-].[Ru+2] [RuCym–HQCl-D-Pro, [RuCym(HQCl-D-Pro)Cl]Cl] | 1.18 ± 0.01
Cc1ccc(C(C)C)cc1.O=C(O)[C@H]1CCCC[NH+]1Cc1cc(Cl)c2cccnc2c1[O-].[Cl-].[Cl-].[Ru+2] [RuCym–HQCl-D-hPro, [RuCym(HQCl-D-hPro)Cl]Cl] | 1.28 ± 0.01

Same assay, conditions: UV-vis; I = 0.2 M KNO3; T = 25.0 °C; chloride-free

SMILES | pKa1 of the complex | pKa2 of the complex
Cc1c(C)c(C)[c-](C)c1C.O=C(O)[C@H]1CCC[NH+]1Cc1cc(Cl)c2cccnc2c1[O-].[Cl-].[Cl-].[Rh+3] [RhCp*–HQCl-D-Pro, [RhCp*(HQCl-D-Pro)Cl]Cl] | 10.08 ± 0.02 | –
Cc1c(C)c(C)[c-](C)c1C.O=C(O)[C@H]1CCCC[NH+]1Cc1cc(Cl)c2cccnc2c1[O-].[Cl-].[Cl-].[Rh+3] [RhCp*–HQCl-D-hPro, [RhCp*(HQCl-D-hPro)Cl]Cl] | 10.11 ± 0.02 | –
Cc1ccc(C(C)C)cc1.O=C(O)[C@H]1CCC[NH+]1Cc1cc(Cl)c2cccnc2c1[O-].[Cl-].[Cl-].[Ru+2] [RuCym–HQCl-D-Pro, [RuCym(HQCl-D-Pro)Cl]Cl] | 8.96 ± 0.01 | 10.67 ± 0.01
Cc1ccc(C(C)C)cc1.O=C(O)[C@H]1CCCC[NH+]1Cc1cc(Cl)c2cccnc2c1[O-].[Cl-].[Cl-].[Ru+2] [RuCym–HQCl-D-hPro, [RuCym(HQCl-D-hPro)Cl]Cl] | 8.78 ± 0.01 | 10.03 ± 0.02
